As usually defined, the IC50 is the midpoint of a concentration-inhibition curve.

SMILES strings stand for the structures.

Drawing on US20220380378A1 (ESSA Pharma, Inc., priority 2021, published 2022), this text covers half-life and IC50 for 9 molecules.

A short description of data set [1]: Microsomal stability assay, liver microsome half-life (human). The data set is classed as in vitro ADME. Conditions: pH 7.4; human liver microsomes 0.5 mg/mL, 1 μM compound, 37° C.; read-out: Liver microsome T1/2 Human. The source says: (§1) Microsomal Stability Assay: Microsomal stability assay is a widely used in vitro model to characterize the metabolic conversion by phase I enzymes, such as cytochrome P450 (CYP) enzymes. Since metabolism is known to be highly variable in different species, microsomal stability assay is commonly run in multiple species. Metabolic stability of testing compound can be evaluated using human, rat, mouse, or other animal liver or intestine microsomes to predict intrinsic clearance.
(§2) The assay was carried out in 96-well microtiter plates at 37° C. Reaction mixtures (25 μL) contained a final concentration of 1 μM test compound, 0.5 mg/mL liver microsomes protein, and 1 mM NADPH and/or 1 mM UDPGA (with alamethicin) in 100 mM potassium phosphate, pH 7.4 buffer with 3 mM MgCl2. The incubation was done with N=1, but duplicate incubation at each time point can be prepared if necessary. At each of the time points (for example, 0, 15, 30, and 60 minutes), 150 μL of quench solution (100% acetonitrile with 0.1% formic acid) with internal standard was transferred to each well. Besides the zero minute controls, mixtures containing the same components except the NADPH can also be prepared as the negative control. Verapamil was included as a positive control to verify assay performance. Plates were sealed, vortexed, and centrifuged at 4° C. for 15 minutes at 4000 rpm. The supernatant is transferred to fresh plates for LC/MS/MS analysis.
(§3) Summarized conditions: [Compound]=1 μM, [LM]=0.5 mg/mL, [NADPH]=1 mM and/or [UDPGA]=1 mM, Buffer=100 mM Potassium Phosphate, pH 7.4 with 3 mM MgCl2, Time=0, 15, 30, and 60 min, and Temperature=37° C.
(§4) All samples were analyzed on LC/MS/MS using an AB Sciex API 4000 instrument, coupled to a Shimadzu LC-20AD LC Pump system. Analytical samples were separated using a Waters Atlantis T3 dC18 reverse phase HPLC column (20 mm×2.1 mm) at a flow rate of 0.5 mL/min. The mobile phase consisted of 0.1% formic acid in water (solvent A) and 0.1% formic acid in 100% acetonitrile (solvent B).
(§5) The extent of metabolism is calculated as the disappearance of the test compound, compared to the 0-min time incubation. Initial rates are calculated for the compound concentration and used to determine half-life (t½). […]

Data set [2] is described as follows: Microsomal stability assay, liver microsome half-life (mouse). In kind it is in vitro ADME. Conditions: pH 7.4; mouse liver microsomes 0.5 mg/mL, 1 μM compound, 37° C.; read-out: Liver microsome T1/2 Mouse.
Excerpt: as §1, §2, §3, §4, §5
Background: Liver microsomes are vesicles of endoplasmic reticulum, rich in cytochrome P450 enzymes.

Data set [3] is described as follows: Microsomal stability assay, liver microsome half-life (rat). The data set is classed as in vitro ADME. Conditions: pH 7.4; rat liver microsomes 0.5 mg/mL, 1 μM compound, 37° C.; read-out: Liver microsome T1/2 Rat.
Excerpt: as §1, §2, §3, §4, §5

Data set [4] is described as follows: Microsomal stability assay, liver microsome half-life (dog). The data set is classed as in vitro ADME. Conditions: pH 7.4; dog liver microsomes 0.5 mg/mL, 1 μM compound, 37° C.; read-out: Liver microsome T1/2 Dog.
Excerpt: as §1, §2, §3, §4
(§6) The extent of metabolism is calculated as the disappearance of the test compound, compared to the 0-min time incubation. Initial rates are calculated for the compound concentration and used to determine half-life (t½).

The nature of data set [5]: Microsomal stability assay, liver microsome half-life (monkey). In kind it is in vitro ADME. Conditions: pH 7.4; monkey liver microsomes 0.5 mg/mL, 1 μM compound, 37° C.; read-out: Liver microsome T1/2 Monkey.
Excerpt: as §1, §2, §3, §4, §6

The target in data set [6] is T1, androgen receptor (AR) (Homo sapiens, UniProt P10275, T878A).
T1 sequence (P10275 1-920 T878A): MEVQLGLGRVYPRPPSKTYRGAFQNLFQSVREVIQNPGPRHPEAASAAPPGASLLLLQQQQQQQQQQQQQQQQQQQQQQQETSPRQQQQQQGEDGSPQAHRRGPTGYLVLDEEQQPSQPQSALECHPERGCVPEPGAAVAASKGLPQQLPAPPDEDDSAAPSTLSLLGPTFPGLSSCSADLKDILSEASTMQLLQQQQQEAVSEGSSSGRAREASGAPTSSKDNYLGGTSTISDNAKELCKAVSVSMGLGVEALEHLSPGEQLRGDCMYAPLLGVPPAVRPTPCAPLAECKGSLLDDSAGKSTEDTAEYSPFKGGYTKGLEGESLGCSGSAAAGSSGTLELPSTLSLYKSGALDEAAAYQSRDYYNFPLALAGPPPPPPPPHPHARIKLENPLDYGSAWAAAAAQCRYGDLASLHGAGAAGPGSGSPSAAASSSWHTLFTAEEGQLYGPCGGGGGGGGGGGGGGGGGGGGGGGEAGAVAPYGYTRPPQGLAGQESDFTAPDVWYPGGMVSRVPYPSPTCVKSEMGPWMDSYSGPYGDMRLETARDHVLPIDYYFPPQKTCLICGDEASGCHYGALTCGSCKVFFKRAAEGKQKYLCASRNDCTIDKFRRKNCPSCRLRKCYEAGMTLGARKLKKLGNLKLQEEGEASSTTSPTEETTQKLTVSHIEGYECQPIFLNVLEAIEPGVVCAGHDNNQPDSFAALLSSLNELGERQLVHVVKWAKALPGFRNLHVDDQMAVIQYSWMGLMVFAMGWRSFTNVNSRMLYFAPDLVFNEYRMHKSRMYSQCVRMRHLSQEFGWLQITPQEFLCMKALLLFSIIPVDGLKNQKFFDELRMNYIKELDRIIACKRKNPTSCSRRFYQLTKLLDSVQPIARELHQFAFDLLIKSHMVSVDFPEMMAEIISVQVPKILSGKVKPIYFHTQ
Nature of the data set: Androgen-induced PSA (6.1 kb)-luciferase reporter assay in LNCaP cells (R1881 1 nM). The data set is classed as cell-based. On the set-up: endogenous in cells; host or cells: LNCaP. Conditions: 24 h, read-out: PSA-Luc IC50 Range. An outline of the steps: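 Compound or vehicle was added 1 h before 1 nM R1881 to LNCaP cells carrying a transiently transfected (24 h) PSA (6.1 kb)-luciferase reporter. After 24 h androgen exposure, lysate luminescence was normalized to protein and expressed versus vehicle plus R1881 for IC50.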
On the technique in general: Reporter assays use an easily measured gene product as a stand-in for the process of interest.

For `CC(C)(c1ccc(-c2cnc3c(c2)CCC3NS(C)(=O)=O)cc1)c1cc(Cl)c(OCCCl)c(C#N)c1` (stereo not drawn) [Compound A217], the half-life at 1 μM in data set [1] is more than 2 h; in data set [2], more than 2 h; in data set [3] it was 0.433 h; in data set [4], 0.833 h; in data set [5], 0.933 h. In data set [6], the IC50 was in the range of 500 to 2000 nM.
As for `CC(C)(c1ccc(OCc2cnc(NS(C)(=O)=O)nc2N2CCOCC2)cc1)c1cc(Cl)c(OCCCl)c(C#N)c1` [Compound A100], the half-life at 1 μM in data set [1] is more than 2 h; in data set [2], 1.6 h; in data set [3], 0.85 h; in data set [4], more than 2 h; in data set [5], 0.633 h. Besides, the IC50 in data set [6] was less than 500 nM.
As for `CC(C)(c1ccc(-c2ccc3nc(NS(C)(=O)=O)nc(N)c3c2)cc1)c1cc(Cl)c(OCCCl)c(C#N)c1` [Compound A173], the half-life at 1 μM in data set [1], in data set [2], in data set [3], in data set [4] and in data set [5] was more than 2 h in each case. Moreover, the IC50 in data set [6] is less than 500 nM.
For `CC(C)(c1ccc(OCC23CC(NS(C)(=O)=O)(C2)C3)cc1)c1cc(Cl)c(OCCCl)c(C#N)c1` [Compound A132, N-(3-((4-(2-(3-chloro-4-(2-chloroethoxy)-5-cyanophenyl)propan-2-yl)phenoxy)methyl)bicyclo[1.1.1]pentan-1-yl)methanesulfonamide], the half-life at 1 μM in data set [1] was more than 2 h; in data set [2], more than 2 h; in data set [3], 1.62 h; in data set [4], more than 2 h; in data set [5] it was 0.95 h. Also, the IC50 in data set [6] lay within 500 to 2000 nM.
For `COc1c(Cl)cc(C(C)(C)c2ccc(-c3ccc4nc(NS(C)(=O)=O)cnc4c3)cc2)cc1C#N` [Compound A269], the half-life at 1 μM in data set [1] is more than 2 h; in data set [2], more than 2 h; in data set [3], more than 2 h; in data set [4], 1.32 h; in data set [5] it was more than 2 h. Besides, the IC50 in data set [6] is more than 2000 nM.
In the case of `CC(C)(c1ccc(OCc2ccnc(NS(C)(=O)=O)n2)cc1)c1cc(F)c(N2CCOCC2)c(C#N)c1` [Compound A262], the half-life at 1 μM in data set [1] is more than 2 h; in data set [2] it was more than 2 h; in data set [3], 1.63 h; in data set [4], more than 2 h; in data set [5], 0.85 h. The IC50 in data set [6] was in the range of 500 to 2000 nM.
Turning to `CC(C)(c1ccc(-c2ccn3nc(NS(C)(=O)=O)nc3c2)cc1)c1cc(Cl)c(OCCCl)c(C#N)c1` [Compound A113], the half-life at 1 μM in data set [1] is 1.93 h; in data set [2] it was more than 2 h; in data set [3], more than 2 h; in data set [4], more than 2 h; in data set [5], more than 2 h. The IC50 in data set [6] lay in the range of 500 to 2000 nM.
As to `CS(=O)(=O)Nc1cnc2cc(-c3ccc4c(c3)CCC4c3cc(Cl)c(OCCCl)c(C#N)c3)ccc2n1` (stereo not drawn) [Compound A270], the half-life at 1 μM in data set [1], in data set [2], in data set [3], in data set [4] and in data set [5] was more than 2 h each time. In addition, the 50% inhibitory concentration (IC50) in data set [6] fell in the range of 500 to 2000 nM.
As to `CC(c1cc(Cl)c(OCCCl)c(C#N)c1)n1cc(-c2ccc3nc(NS(C)(=O)=O)ncc3c2)cn1` (stereo not drawn) [Compound A141], the half-life at 1 μM in data set [1] is more than 2 h; in data set [2] it was more than 2 h; in data set [3], more than 2 h; in data set [4], more than 2 h; in data set [5], 1.1 h. In addition, in data set [6], the half-inhibitory concentration (IC50) was more than 2000 nM.
